Literature values as cited in patent US20260335309A1, “METHODS OF TREATING UVEAL MELANOMA” (IDEAYA BIOSCIENCES, INC., priority 2022, published 2026).

Tested on: uveal melanoma cells harboring GNAQ mutations
Conditions: by targeting PKC/ERK1/2 and PKC/NF-xB pathways; X. Wu et al., Mol. Cancer Ther. 2012

In the case of `CN1CCN(c2nc(C3=C(c4c[nH]c5ccccc45)C(=O)NC3=O)c3ccccc3n2)CC1` [sotrastaurin], the “inhibition of growth of uveal melanoma cells harboring GNAQ mutations” value is listed as “selectively inhibit the growth of uveal melanoma cells harboring GNAQ mutations”.
